Measured values reported in US6670367B1, “Azinyloxy, and phenoxy-diaryl-carboxylic acid derivatives, their preparation and use as mixed ETA/ETB endothelin receptor antagonists” (Abbott GmbH & Co., KG, priority 1996, dated 2003).
pKi: −log10 of the molar value.

Assays:
human ETB receptor = target: T1, human ETB receptor (Homo sapiens, UniProt P24530); test: ETB receptor binding assay (125I-ET3, membranes of receptor-expressing CHO cells); conditions: cloned human ETB receptor, CHO cell membranes, 25 pM 125I-ET3, 25° C., 30 min
T1 construct: expressed in transfected cells; host or cells: CHO cells (membrane preparation)
T1 sequence (P24530 27-442): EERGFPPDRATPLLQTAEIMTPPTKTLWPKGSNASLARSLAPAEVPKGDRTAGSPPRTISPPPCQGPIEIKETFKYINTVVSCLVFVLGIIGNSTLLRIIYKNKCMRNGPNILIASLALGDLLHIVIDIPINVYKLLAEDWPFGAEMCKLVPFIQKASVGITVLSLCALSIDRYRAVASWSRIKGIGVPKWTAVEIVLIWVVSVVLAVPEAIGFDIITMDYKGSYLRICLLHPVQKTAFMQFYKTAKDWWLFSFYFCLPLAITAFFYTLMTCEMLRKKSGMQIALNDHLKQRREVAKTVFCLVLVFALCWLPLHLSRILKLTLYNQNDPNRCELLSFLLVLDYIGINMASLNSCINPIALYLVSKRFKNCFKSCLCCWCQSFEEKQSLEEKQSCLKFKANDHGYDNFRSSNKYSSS
Experimental: (§1) Cloned human ETA or ETB receptor-expressing CHO cells were employed for binding studies.
(§2) The ETA or ETB receptor-expressing CHO cells were grown in DMEM NUT MIX F12 medium (Gibco, No. 21331-020) with 10% fetal calf serum (PAA Laboratories GmbH, Linz, No. A15-022), 1 mM glutamine (Gibco No. 25030-024), 100 U/ml penicillin and 100 μg/ml streptomycin (Gibco, Sigma No. P-0781). After 48 hours, the cells were washed with PBS and incubated with 0.05% trypsin-containing PBS at 37° C. for 5 minutes. Neutralization with medium was then carried out, and the cells were collected by centrifugation at 300×g.
(§3) For the membrane preparation, the cells were adjusted to a concentration of 10^8 cells/ml of buffer (50 mM tris.HCL buffer, pH 7.4) and then disintegrated by ultrasound (Branson Sonifier 250, 40-70 seconds/constant/output 20).
(§4) For the ETA and ETB receptor binding assays, the membranes were suspended in incubation buffer (50 mM tris-HCl, pH 7,4 with 5 mM MnCl2, 40 μg/ml bacitracin and 0.2% BSA) at a concentration of 50 μg of protein per assay mixture, and incubated with 25 pM ^125I-ET1 (ETA receptor assay) or 25 pM ^125I-ET3 (ETB receptor assay) in the presence and absence of test substance at 25° C. The nonspecific binding was determined with 10^−7 M ET1. Filtration was carried out after 30 min through GF/B glassfiber filters (Whatman, England) in a Skatron cell collector (Skatron, Lier, Norway) to separate free and bound radio ligands, and the filters were washed with ice-cold tris-HCl buffer, pH 7.4 with 0.2% BSA. The radioactivity collected on the filters was quantified using a
(§5) Packard 2200 CA liquid scintillation counter.

human ETA receptor = target: T2, human ETA receptor (Homo sapiens, UniProt P25101); test: ETA receptor binding assay (125I-ET1, membranes of receptor-expressing CHO cells); conditions: cloned human ETA receptor, CHO cell membranes, 25 pM 125I-ET1, 25° C., 30 min
T2 construct: expressed in transfected cells; host or cells: CHO cells (membrane preparation)
T2 sequence (P25101 21-427): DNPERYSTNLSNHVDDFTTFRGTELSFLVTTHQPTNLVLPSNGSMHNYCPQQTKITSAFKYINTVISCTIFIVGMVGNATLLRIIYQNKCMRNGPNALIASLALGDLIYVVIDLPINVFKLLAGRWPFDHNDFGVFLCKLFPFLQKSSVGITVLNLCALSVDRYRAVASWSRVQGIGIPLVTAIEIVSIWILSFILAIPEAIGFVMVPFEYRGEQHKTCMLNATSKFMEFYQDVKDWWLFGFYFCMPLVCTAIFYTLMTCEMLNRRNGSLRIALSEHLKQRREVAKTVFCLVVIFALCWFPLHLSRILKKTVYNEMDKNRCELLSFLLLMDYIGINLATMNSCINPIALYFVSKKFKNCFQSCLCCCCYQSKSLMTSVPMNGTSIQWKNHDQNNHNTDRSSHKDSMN
Experimental: as §1, §2, §3, §4, §5

| SMILES | pKi (human ETB receptor) | pKi (human ETA receptor) | melting point |
| --- | --- | --- | --- |
| COc1nc(OC(C(=O)O)C(OCCc2ccc(C)cc2)(c2ccccc2)c2ccccc2)nc2c1CCO2 (stereo not drawn) [Compound I-370, 2-(4-Methoxy-5,6-dihydrofuro(2,3d)-2-pyrimidinyloxy)-3-(2-(4-methylphenyl)ethoxy)-3,3-diphenylpropionic Acid] | 7.27 | 7.96 | 128 to 130 °C |
| COc1ccc(CCOC(c2ccccc2)(c2ccccc2)C(Oc2nc(C)cc(C)n2)C(=O)O)cc1OC (stereo not drawn) [Compound I-445] | 8.14 | 8.46 | 125 to 130 °C (dec.) |
| COc1cc(CCOC(c2ccc(Cl)cc2)(c2ccc(Cl)cc2)C(Oc2nc(OC)c3c(n2)OCC3)C(=O)O)cc(OC)c1 (stereo not drawn) [Compound I-593, 2-(4-Methoxy-5,6-dihydrofuro(2,3d)-2-pyrimidinyloxy)-3-(2-(3,5-dimethoxyphenyl)ethoxy)-3,3-di(4-chlorophenyl)propionic Acid] | 6.80 | 6.52 | 90 to 100 °C |
| COc1ccc(CCOC(c2ccc(Cl)cc2)(c2ccc(Cl)cc2)C(Oc2nc(OC)c3c(n2)OCC3)C(=O)O)cc1OC (stereo not drawn) [Compound I-635, 2-(4-Methoxy-5,6-dihydrofuro(2,3d)-2-pyrimidinyloxy)-3-(2-(3,4-dimethoxyphenyl)ethoxy)-3,3-di(4-chlorophenyl)propionic Acid] | 6.90 | 6.68 | 100 to 110 °C |
| Cc1cc(C)nc(OC(C(=O)O)C(OCCc2ccc(C(C)C)cc2)(c2ccccc2)c2ccccc2)n1 (stereo not drawn) [Compound I-672, 2-(4,6-Dimethyl-2-pyrimidinyloxy)-3-(2-(4-i-propylphenyl)ethoxy)-3,3-diphenylpropionic Acid] | 6.73 | 7.22 | – |
| COc1cc(C)nc(OC(C(=O)O)C(OCCc2ccc(OC)c(OC)c2)(c2ccc(Cl)cc2)c2ccc(Cl)cc2)n1 (stereo not drawn) [Compound I-699, 2-(4-Methoxy-6-methyl-2-pyrimidinyloxy)-3-(2-(3,4-dimethoxyphenyl)ethoxy)-3,3-di(4-chlorophenyl)propionic Acid] | 6.89 | 6.64 | 100 to 110 °C |
| Cc1cc(C)nc(OC(C(=O)O)C(OCCc2ccc(Cl)cc2)(c2ccccc2)c2ccccc2)n1 (stereo not drawn) [Compound I-713, 2-(4,6-Dimethyl-2-pyrimidinyloxy)-3-(2-(4-chlorophenyl)ethoxy)-3,3-diphenylpropionic Acid] | 7.02 | 7.70 | 108 °C (dec.) |
| COc1ccc(CCOC(c2ccccc2)(c2ccccc2)[C@@H](Oc2nc(C)cc(C)n2)C(=O)O)cc1OC [I-445 (R) enantiomer] | 6.85 | 7.19 | – |
| COc1ccc(CCOC(c2ccccc2)(c2ccccc2)[C@H](Oc2nc(C)cc(C)n2)C(=O)O)cc1OC [I-445 (S) enantiomer, (S)-2-(4,6-Dimethylpyrimidin-2-yloxy)-3-(2-(3,4-dimethoxyphenyl)ethoxy)-3,3-diphenylpropionic Acid] | 8.39 | 8.89 | – |
